Data reported in PMC5896955, “The signaling lipid sphingosine 1-phosphate regulates mechanical pain” (eLife, 2018).

Target: T1, S1P Receptor 3 (S1PR3) (Mus musculus, UniProt Q9Z0U9)
T1 construct: native receptor / S1PR3-mCherry fusion in cultured mouse DRG neurons
Experiment: Fura-2 calcium imaging of DRG neurons with S1PR3 knockout control; also S1PR3-dependent tail current inhibition ([…])
Format: cell-based

T1 sequence (Q9Z0U9 whole entry, the tested form may be a part): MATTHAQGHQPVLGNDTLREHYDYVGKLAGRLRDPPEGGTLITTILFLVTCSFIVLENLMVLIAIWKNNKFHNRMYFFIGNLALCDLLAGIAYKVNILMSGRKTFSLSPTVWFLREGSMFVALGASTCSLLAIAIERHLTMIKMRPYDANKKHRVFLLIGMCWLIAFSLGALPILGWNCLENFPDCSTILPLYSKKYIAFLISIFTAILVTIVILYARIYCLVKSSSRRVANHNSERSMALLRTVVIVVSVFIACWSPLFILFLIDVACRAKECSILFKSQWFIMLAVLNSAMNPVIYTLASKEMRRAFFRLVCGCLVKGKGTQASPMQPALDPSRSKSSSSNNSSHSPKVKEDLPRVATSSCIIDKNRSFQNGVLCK

EC50: 155 nM
SMILES: CCCCCCCCCCCCC/C=C/[C@@H](O)[C@@H](N)COP(=O)(O)O [S1P, Sphingosine 1-phosphate]
